{"source": "paper PMC11496002", "about": "(Epilepsia, 2024)", "key": {"[1]": {"system": "hyperthermia-induced seizures in Scn1a^A1783V/WT mice", "conditions": "cited from earlier work"}, "[2]": {"experiment": "Plasma and brain pharmacokinetics after intraperitoneal administration", "conditions": "for Brain/Plasma ratio AUC0-inf / Brain/Plasma ratio Cmax: assumes brain density 1 g/ml"}, "[3]": {"experiment": "Monitoring for sedation via physical observation", "format": "in vivo, mouse", "conditions": "all mice treated with CBD (70-150 mg/kg with CLB 5 + VPA 75 mg/kg ip)"}, "[4]": {"experiment": "Core body temperature", "format": "in vivo, mouse", "conditions": "all mice treated with CBD (with CLB + VPA) ip"}, "[5]": {"conditions": "mouse, in vivo"}, "[6]": {"conditions": "comedication with CLB; cited from earlier work"}, "[7]": {"experiment": "in vivo", "conditions": "Scn1a^WT/WT (wild-type), mouse, ip"}, "[8]": {"conditions": "Double (CLB+VPA) ip, Scn1a^WT/WT mice"}, "[9]": {"conditions": "Single Drug, each alone ip, Scn1a^WT/WT mice"}, "[10]": {"conditions": "Triple (CLB+VPA+CBD) ip, Scn1a^WT/WT mice"}}, "note": "Read-outs that look alike come from different tables or passages of the source."}
{"molecule": "C[C@H]1CNCCc2ccc(Cl)cc21", "note": "[LCS, Lorcaserin]", "values": [{"measurement": "Protection against hyperthermia-induced seizures", "setting": "[1]; LCS 10 mg/kg alone", "value": "insufficient to prevent hyperthermia-induced seizures"}]}
{"molecule": "CN1C(=O)CC(=O)N(c2ccccc2)c2cc(Cl)ccc21", "note": "[CLB, clobazam]", "values": [{"measurement": "Exposure (AUC0-inf), triple-drug therapy (CLB+VPA+STP) vs CLB alone or CLB + VPA", "setting": "[2]; Scn1a^WT/WT mice", "value": "substantially higher"}, {"measurement": "CLB stand-alone PK in Scn1a^A1783V/WT vs Scn1a^WT/WT mice", "setting": "[2]; Table S2", "value": "comparable PK profile"}, {"measurement": "Exposure when adding CBD to CLB+VPA vs adding STP to CLB+VPA", "setting": "[2]; mouse, in vivo", "value": "higher"}, {"measurement": "Brain Cmax, triple-drug therapy (CLB+VPA+STP) vs CLB alone and CLB + VPA", "setting": "[2]; p<0.0001 vs CLB alone, p=0.0003 vs CLB + VPA", "value": "significantly higher"}]}
{"molecule": "CCNC(C)Cc1cccc(C(F)(F)F)c1", "note": "(stereo not drawn) [FFA, fenfluramine]", "values": [{"measurement": "Protection against hyperthermia-induced seizures", "setting": "[1]; FFA 25 mg/kg alone", "value": "insufficient to prevent hyperthermia-induced seizures"}]}
{"molecule": "C=C(C)[C@@H]1CCC(C)=C[C@H]1c1c(O)cc(CCCCC)cc1O", "note": "[CBD, cannabidiol]", "values": [{"measurement": "Signs of sedation", "setting": "[3]", "value": "No signs of sedation"}, {"measurement": "Post-injection core body temperature compared to baseline pre-injection", "setting": "[4]", "value": "reduction in post-injection core body temperatures"}, {"measurement": "Increase in brain exposure, CBD+CLB+VPA compared to CBD monotherapy", "setting": "[2]; mouse, in vivo", "value": "two-fold"}]}
{"molecule": "CCCC(CCC)C(=O)O", "note": "[VPA, sodium valproate]", "values": [{"measurement": "Brain exposure in CBD+CLB+VPA compared to CLB+VPA or VPA-alone", "setting": "[5]", "value": "increase"}]}
{"molecule": "O=C1CC(=O)N(c2ccccc2)c2cc(Cl)ccc2N1", "note": "[N-CLB, N-desmethylclobazam]", "values": [{"measurement": "Brain/Plasma ratio AUC0-inf", "setting": "[2]; [8]", "value": 1.42}, {"measurement": "Brain/Plasma ratio Cmax", "setting": "[2]; [8]", "value": 1.39}, {"measurement": "Brain/Plasma ratio AUC0-inf", "setting": "[2]; [9]", "value": 2.1}, {"measurement": "Brain/Plasma ratio Cmax", "setting": "[2]; [9]", "value": 1.25}, {"measurement": "Brain/Plasma ratio AUC0-inf", "setting": "[2]; [10]", "value": 1.56}, {"measurement": "Brain/Plasma ratio Cmax", "setting": "[2]; [10]", "value": 1.2}, {"measurement": "Brain/Plasma ratio AUC0-inf", "setting": "[2]; Triple (CLB+VPA+STP) ip, Scn1a^WT/WT mice", "value": 2.29}, {"measurement": "Exposure when adding CBD to CLB+VPA vs adding STP to CLB+VPA", "setting": "[2]; mouse, in vivo", "value": "higher"}, {"measurement": "Fold increase of concentrations in triple-drug therapies compared to CLB+VPA", "setting": "[2]; mouse, in vivo", "value": "> 2", "unit": "fold"}]}
{"molecule": "C=C(C)[C@@H]1CCC(CO)=C[C@H]1c1c(O)cc(CCCCC)cc1O", "note": "[7-OH-CBD, 7-hydroxycannabidiol]", "values": [{"measurement": "Brain/Plasma ratio AUC0-inf", "setting": "[2]; [9]", "value": 0.82}, {"measurement": "Brain/Plasma ratio Cmax", "setting": "[2]; [9]", "value": 0.93}, {"measurement": "Brain/Plasma ratio AUC0-inf", "setting": "[2]; [10]", "value": 1.02}, {"measurement": "Brain/Plasma ratio Cmax", "setting": "[2]; [10]", "value": 0.86}]}
{"molecule": "CC(C)(C)C(O)/C=C/c1ccc2c(c1)OCO2", "note": "(stereo not drawn) [STP, stiripentol]", "values": [{"measurement": "Brain Cmax, CLB + VPA + STP cohort vs STP alone", "setting": "[5]", "value": "not different"}, {"measurement": "Increase of STP concentration by CLB", "setting": "[6]", "value": 37, "unit": "%"}, {"measurement": "half-life", "setting": "[7]", "value": 52.1, "unit": "min"}, {"measurement": "Protection against hyperthermia-induced seizures", "setting": "[1]; STP 100 mg/kg alone", "value": "ineffective"}]}
